Data: patent US20170002057A1, “COMPOSITIONS CONTAINING FUSION PROTEIN OF ALBUMIN AND ANALOGS THEREOF, METHODS FOR MAKING AND USING THE SAME” (NAL PHARMACEUTICAL GROUP LIMITED, priority 2015, published 2017)

Experiments:
[1] = target: human somatostatin sst2 receptor (human) (UniProt P30874); assay: cell-based or functional assay
[2] = In vivo pharmacokinetic profile in rat after IV injection (ELISA)
Method: The rat was restrained manually at the designated time points, approximately 300 μL of blood sample was collected via jugular vein into EDTA-K2 tubes and subsequently centrifuged at 4° C. and 1500 g for 10 min to obtain plasma samples.
Standard curve was prepared by the following procedure. Duplicate standard points were prepared by serially diluting Free SST Stock (1 mg/mL) with diluent buffer to produce 5, 2.5, 1.25, 0.625, 0.313, 0.156, 0.078 and 0.039 ng/mL solutions.
Standard curve was prepared by the following procedure. Duplicate standard points were prepared by serially diluting SST fusion protein (2.42 mg/mL) with pooled rat plasma to produce 225, 112.5, 56.2, 28.1, 14.1, 7.03, 3.51 and 1.76 ng/mL solutions.
ELISA assay has been performed as described in Example 5-3.

[3] = rat, intravenous, SST 0.02 mg/kg, SST fusion protein 27.1 mg/kg

UniProt P30874, sequence (P30874 whole entry): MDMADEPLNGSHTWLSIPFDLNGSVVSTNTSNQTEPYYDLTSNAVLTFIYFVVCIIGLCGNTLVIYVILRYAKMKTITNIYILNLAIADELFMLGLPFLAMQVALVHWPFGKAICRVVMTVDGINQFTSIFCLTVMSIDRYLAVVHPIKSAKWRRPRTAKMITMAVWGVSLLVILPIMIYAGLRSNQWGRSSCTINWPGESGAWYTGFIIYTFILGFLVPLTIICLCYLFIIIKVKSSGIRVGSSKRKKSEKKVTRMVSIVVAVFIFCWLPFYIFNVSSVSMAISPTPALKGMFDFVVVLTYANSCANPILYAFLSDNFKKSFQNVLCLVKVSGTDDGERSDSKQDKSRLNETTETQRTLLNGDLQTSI

EC50 values of the inhibition of cAMP production [1] [nM]	Molecule	clinical signs after injection ([2]; male Sprague Dawley rats, tail vein injection, SST 0.02 mg/kg, SST fusion protein 27.1 mg/kg)	level at 1 min ([2]; male, Sprague Dawley, in vivo, rat, IV 0.02 mg/kg, sampling time 1 min, read-out: Plasma SST concentration, Mean) [ng/mL]	level at 2 min ([2]; male, Sprague Dawley, in vivo, rat, IV 0.02 mg/kg, sampling time 2 min, read-out: Plasma SST concentration, Mean) [ng/mL]	level at 4 min ([2]; male, Sprague Dawley, in vivo, rat, IV 0.02 mg/kg, sampling time 4 min, read-out: Plasma SST concentration, Mean) [ng/mL]	level at 0.1 h ([2]; male, Sprague Dawley, in vivo, rat, IV 0.02 mg/kg, sampling time 6 min, read-out: Plasma SST concentration, Mean) [ng/mL]	level at 8 min ([2]; male, Sprague Dawley, in vivo, rat, IV 0.02 mg/kg, sampling time 8 min, read-out: Plasma SST concentration, Mean) [ng/mL]	AUC(0-inf) ([2]; male, Sprague Dawley, in vivo, rat, intravenous, SST 0.02 mg/kg, SST fusion protein 27.1 mg/kg, read-out: AUC0-inf, Mean (converted)) [ng·h/mL]	AUC(0-t) ([2]; male, Sprague Dawley, in vivo, rat, intravenous, SST 0.02 mg/kg, SST fusion protein 27.1 mg/kg, read-out: AUC0-t, Mean (converted)) [ng·h/mL]	clearance ([2]; male, Sprague Dawley, in vivo, rat, intravenous, SST 0.02 mg/kg, SST fusion protein 27.1 mg/kg, read-out: CL, Mean) [mL/min/kg]	Vd ([2]; male, Sprague Dawley, in vivo, rat, intravenous, SST 0.02 mg/kg, SST fusion protein 27.1 mg/kg, read-out: Vdss, Mean) [L/kg]	Plasma SST concentration, Mean ([2]; rat, IV 0.02 mg/kg, sampling time 0 min) [ng/mL]	AUMC0-inf, Mean [2, 3] [mg · h^2/mL]	AUMC0-t, Mean [2, 3] [mg · h^2/mL]	MRTIV, Mean [2, 3] [h]
0.041	Octreotide (peptide)														
	C[C@H](N)C(=O)NCC(=O)N[C@H]1CSSC[C@@H](C(=O)O)NC(=O)[C@H](CO)NC(=O)[C@H]([C@@H](C)O)NC(=O)[C@H](Cc2ccccc2)NC(=O)[C@H]([C@@H](C)O)NC(=O)[C@H](CCCCN)NC(=O)[C@H](Cc2c[nH]c3ccccc23)NC(=O)[C@H](Cc2ccccc2)NC(=O)[C@H](Cc2ccccc2)NC(=O)[C@H](CC(N)=O)NC(=O)[C@H](CCCCN)NC1=O [Free SST]	no negative clinical signs were observed	7.13	4.95	4.3	1.07	2.95	0.73	0.483	510	2.19	0	173	55.9	4.1
